Measurements taken from patent US20240018132A1, “5-HYDROXY-1,4-NAPHTHALENEDIONE FOR USE IN THE TREATMENT OF CANCER” (GODAVARI BIOREFINERIES LIMITED, priority 2020, published 2024).

What was measured:
MDAMB231 [1] = test: In vitro antiproliferative assay (MTT assay), breast cancer cell line; format: cell-based; conditions: Homo sapiens, MDA-MB-231, 48 h, MTT assay, breast cancer MDAMB231, 48 hrs drug incubation
Method: (§1) MTT assay is a simple and sensitive assay where, metabolic reducing activity of the cells is measured. The increase of this activity in time is taken as a parameter of cell growth. If treatment with a drug impairs this increase, the action is a consequence of growth inhibition, cell killing or both. […] All cell lines were cultured in a 37° C. incubator with a 5% CO2 environment. Compounds were dissolved in DMSO with a concentration of 0.1M (stock solution). Cells were seeded into 96-well plates at suitable plating efficiency.
(§2) Following plating efficiencies were standardized for MTT assay:
(§3) In the MTT procedure, the cells were plated in 96 well plates as per predetermined plating efficiency (Table1). The plates were then incubated for 24 hrs in 5% CO2 atmosphere at 37° C. Appropriate concentrations of the drugs were then added to the plate and further incubation was carried out for 48 hrs (in 5% CO2 atmosphere at 37° C.). The assay plate was then centrifuged twice at 3000 rpm for 3 mins and supernatant was then discarded. 100 ul of MTT solution (0.5 mg/ml) was then added to each well of the plate and it was further incubated for 4 hrs (in 5% CO2 atmosphere at 37° C.) Following 4 hr incubation, the plate was then centrifuged twice, and supernatant was aspirated off very carefully. 200 ul of DMSO was then added to each well to solubilize. MTT crystals and mixed well by shaking the plate. XY graph of log percent viability was then plotted against log drug concentration.

PC3 [2] = test: In vitro sphere-forming assay (cancer stem cells), Prostosphere media; conditions: for viability at 0.025 µM / viability at 0.25 µM / viability at 2.5 µM / viability at 25 µM / viability at 250 µM / viability at 0.0025 µM: Homo sapiens, PC-3, read-out: % Viability of spheres (PC3); for 3D sphere count of PC3: Prostosphere media, 2000 cells/well, n = 6 ± S.D
MDAMB231 [3] = test: In vitro sphere-forming assay (cancer stem cells), Mammosphere media; conditions: for viability at 0.025 µM / viability at 0.25 µM / viability at 2.5 µM / viability at 25 µM / viability at 250 µM / viability at 0.0025 µM: Homo sapiens, MDA-MB-231, read-out: % Viability of spheres (MDAMB231); for 3D sphere count of MDAMB231: Mammosphere media, 2000 cells/well, n = 6 ± S.D
PC3 [4] = test: In vitro antiproliferative assay (MTT assay), prostate cancer cell line; format: cell-based; conditions: Homo sapiens, PC-3, 48 h, MTT assay, prostate cancer PC3, 48 hrs drug incubation
Method: as §1, §2, §3

Structure (SMILES) | IC50 (MDAMB231 [1]) | IC50 (PC3 [4]) | viability at 0.025 µM (PC3 [2]) | viability at 0.25 µM (PC3 [2]) | viability at 2.5 µM (PC3 [2]) | viability at 25 µM (PC3 [2]) | 3D sphere count of PC3 (PC3 [2]; drug 0.025 uM) | 3D sphere count of PC3 (PC3 [2]; drug 0.25 uM) | 3D sphere count of PC3 (PC3 [2]; drug 2.5 uM) | 3D sphere count of PC3 (PC3 [2]; drug 25 uM) | viability at 0.025 µM (MDAMB231 [3]) | viability at 0.25 µM (MDAMB231 [3]) | viability at 2.5 µM (MDAMB231 [3]) | viability at 25 µM (MDAMB231 [3]) | 3D sphere count of MDAMB231 (MDAMB231 [3]; drug 0.025 uM) | 3D sphere count of MDAMB231 (MDAMB231 [3]; drug 0.25 uM) | 3D sphere count of MDAMB231 (MDAMB231 [3]; drug 2.5 uM) | 3D sphere count of MDAMB231 (MDAMB231 [3]; drug 25 uM) | viability at 0.0025 µM (PC3 [2]) | 3D sphere count of PC3 (PC3 [2]; drug 0.0025 uM) | also measured
COc1ccc(NC2=CC(=O)c3c(OCCN4CCOCC4)cccc3C2=O)cc1 [Formula 37, 5-(2-morpholinoethoxy)-2-(4-methoxyphenylamino) naphthalene-1,4-dione] | 4610 nM | 4440 nM | 89% | 69% | 56% | 37% | 89(±3) | 69(±3) | 56(±4) | 37(±4) | 82% | 66% | 56% | 39% | 82(±4) | 66(±5) | 56(±4) | 39(±3) | – | – | viability at 250 µM (PC3 [2]): 20%; 3D sphere count of PC3 (PC3 [2]; drug 250 uM): 20(±4); viability at 250 µM (MDAMB231 [3]): 23%; 3D sphere count of MDAMB231 (MDAMB231 [3]; drug 250 uM): 23(±3)
O=C1C(Oc2ccc3c(c2)OCO3)=CC(=O)c2c(OCCN3CCOCC3)cccc21 [Formula 46, 5-(2-morpholinoethoxy)-2-(benzo[d][1,3]dioxol-5-yloxy)naphthalene-1,4-dione] | 1370 nM | 1350 nM | 67% | 51% | 36% | 22% | 54(±4) | 41(±3) | 29(±3) | 18(±3) | 60% | 49% | 32% | 20% | 54(±4) | 44(±4) | 29(±3) | 18(±3) | 82% | 66(±3) | viability at 0.0025 µM (MDAMB231 [3]): 74%; 3D sphere count of MDAMB231 (MDAMB231 [3]; drug 0.0025 uM): 67(±5)
O=C1C(Oc2ccc3c(c2)OCO3)=CC(=O)c2c(OCCCCN3CCOCC3)cccc21 [Formula 47, 5-(4-morpholinobutoxy)-2-(benzo[d][1,3]dioxol-5-yloxy)naphthalene-1,4-dione] | 970 nM | 582 nM | 57% | 43% | 28% | 18% | 46(±4) | 35(±3) | 23(±3) | 15(±3) | 59% | 43% | 27% | 17% | 53(±3) | 39(±3) | 25(±5) | 16(±3) | 77% | 62(±4) | viability at 0.0025 µM (MDAMB231 [3]): 78%; 3D sphere count of MDAMB231 (MDAMB231 [3]; drug 0.0025 uM): 71(±2)

More lines, main results first:

IC50 (MDAMB231 [1]) | IC50 (PC3 [4]) | Structure (SMILES) | viability at 0.025 µM (PC3 [2]) | viability at 0.25 µM (PC3 [2]) | viability at 2.5 µM (PC3 [2]) | viability at 25 µM (PC3 [2]) | 3D sphere count of PC3 (PC3 [2]; drug 0.025 uM) | 3D sphere count of PC3 (PC3 [2]; drug 0.25 uM) | 3D sphere count of PC3 (PC3 [2]; drug 2.5 uM) | 3D sphere count of PC3 (PC3 [2]; drug 25 uM) | viability at 0.025 µM (MDAMB231 [3]) | viability at 0.25 µM (MDAMB231 [3]) | viability at 2.5 µM (MDAMB231 [3]) | viability at 25 µM (MDAMB231 [3]) | 3D sphere count of MDAMB231 (MDAMB231 [3]; drug 0.025 uM) | 3D sphere count of MDAMB231 (MDAMB231 [3]; drug 0.25 uM) | 3D sphere count of MDAMB231 (MDAMB231 [3]; drug 2.5 uM) | 3D sphere count of MDAMB231 (MDAMB231 [3]; drug 25 uM) | viability at 0.0025 µM (PC3 [2]) | 3D sphere count of PC3 (PC3 [2]; drug 0.0025 uM) | also measured
451 nM | 246 nM | O=C1C(c2ccc(F)cc2)=CC(=O)c2c(OCCN3CCOCC3)cccc21 [Formula 7, 5-(2-morpholinoethoxy)-2-(4-fluorophenyl) naphthalene-1,4-dione] | 71% | 50% | 35% | 21% | 57(±3) | 40(±3) | 28(±2) | 17(±3) | 83% | 60% | 43% | 31% | 59(±3) | 43(±3) | 31(±3) | 22(±3) | – | – | viability at 250 µM (PC3 [2]): 11%; 3D sphere count of PC3 (PC3 [2]; drug 250 uM): 9(±2); viability at 250 µM (MDAMB231 [3]): 15%; 3D sphere count of MDAMB231 (MDAMB231 [3]; drug 250 uM): 11(±3)
109 nM | 225 nM | O=C1C(Oc2ccc(F)cc2F)=CC(=O)c2c(OCCN3CCOCC3)cccc21 [Formula 74] | 56% | 41% | 27% | 17% | 45(±2) | 36(±4) | 24(±4) | 15(±3) | 48% | 35% | 27% | 12% | 39(±3) | 29(±3) | 22(±4) | 10(±2) | 73% | 64(±6) | viability at 0.0025 µM (MDAMB231 [3]): 73%; 3D sphere count of MDAMB231 (MDAMB231 [3]; drug 0.0025 uM): 60(±3)
